Assay results reported in patent US20020082262A1, “Substituted bicyclic compounds for treating multidrug resistance” (priority 2000, published 2002).

test system: NIH-MDR1-G185 cells; test: Fluorescent Substrate Accumulation Assay (BODIPY-FL Taxol accumulation); format: cell-based; settings: MDR modulator 10 micromolar, BODIPY-FL Taxol 500 nM, 40 min at 37° C.; fluorescence in NIH-MDR1-G185 cells in presence / absence of modulator
Method: Fluorescent Substrate Accumulation Assay NIH-MDR1-G185 cells (obtained from M. Gottesman, NIH) were harvested and resuspended in RPMI-1640 containing L-glutamine, 10% Cosmic Calf Serum and penicillin-streptomycin. Cell suspension aliquots of 175 microliters (1×10^5 cells) were added to individual wells of a 96 well microtiter plate and preincubated for 15 min at 37° C. with 20 microliters MDR modulator diluted in cell culture media to give a final concentration of 10 micromolar. Control wells received no modulating agent. BODIPY-FL Taxol (Molecular Probes, Eugene, Oreg.) was added to each well in 10 microliter aliquots to give a final concentration of 500 nM and cells were incubated for 40 min at 37° C. Cells were centrifuged at 100×g for 5 min at 4° C. and the cell pellet washed with 200 microliters cold PBS to remove fluorescent medium from wells. Cells were centrifuged once more, media removed, and cells resuspended in 200 microliters cold PBS. Fluorescence accumulation was measured in a fluorescence plate reader fitted with an excitation filter of 485 nm and an emission filter of 538 nm. BODIPY-FL taxol accumulation in the cells was calculated as follows: Accumulation Index=(fluorescence in NIH-MDR1-G185 cells in the presence of modulator)/(fluorescence in NIH-MDR1-G185 cells in absence of modulator)

Row | Molecule | Accumulation Index
1 | O=C(C(CCCc1ccccc1)CCCc1ccccc1)N1CCC(NC2CCN(C[C@@H](O)COc3cccc4ncccc34)CC2)CC1 [Example 15] | 6
2 | O=C(CN1CCN(C[C@@H](O)COc2cccc3ncccc23)CC1)N[C@@H](Cc1cccnc1)C(=O)N1CCC(C(=O)NC(CCCc2ccccc2)CCCc2ccccc2)CC1 [Example 27, 1-(N-{1-[2-(R)-hydroxy-3-(quinolin-5-yloxy)-propyl]-piperazine-4-acetyl}-[3-(3-pyridyl)-alanyl])-piperidine-4-carboxylic acid [4-phenyl-1(3-phenyl-propyl)-butyl]-amide] | 8
3 | O=C(CN1CCN(C[C@@H](O)COc2cccc3ncccc23)CC1)NC[C@H]1CC[C@H](C(=O)NC(CCCc2ccccc2)CCCc2ccccc2)CC1 [Example 22, N-{1-[2-(R)-hydroxy-3-(quinolin-5-yloxy)-propyl]-piperazine-4-acetyl}-trans-4-aminomethyl-1-cyclohexanecarboxylic acid [4-phenyl-1-(3-phenyl-propyl)-butyl]-amide] | 7
4 | O=C(C(CCCc1ccccc1)CCCc1ccccc1)N1CCN(C2CCN(C[C@@H](O)COc3cccc4ncccc34)CC2)CC1 [Example7, 4-[5-phenyl-2-(3-phenyl-propyl)-pentanoic acid {1-[2-hydroxy-3-(quinolin-5-yloxy)-propyl]-piperazin-4-yl}-amide]piperidine] | 9
5 | 1-[5-Phenyl-2-(3-phenyl-propyl)-pentanoic acid {4-[2-hydroxy-3-(quinolin-5-yloxy)-propyl]-piperazin-4-yl}-amide]piperidine [Example 10] | 8
